The target in assay [1] is Myc-GyrB-FGFR fusion protein (Homo sapiens, UniProt P11362). Description: Biochemical FGFR assay (ELISA). The note with it: read-out: bio fgfR1 IC50. A general note: In an ELISA, binding on a coated surface is turned into a signal by an enzyme label.
Description: This assay measures in vitro kinase activity of the Myc-GyrB-FGFR fusion protein using ELISA.
Materials and Reagents • 1. HNTG
PBS (Dulbecco's Phosphate-Buffered Saline, Gibco Catalog # 450-1300EB). • 3. Blocking Buffer. • 4. Kinase Buffer.
Working solution: 100 mM in ethanol. • 6.
ABTS Solution. • 10. Hydrogen peroxide 30% solution ( Fisher Catalog # H325). • 11. ABTS/H2O2. • 12. 0.2 M HCl. • 13.
Prepare 1.0 mM solution in MilliQ H2O, adjust pH to 7.2 with HCl. • 14.
Prepare 5 M solution in MilliQ H2O. • 15. MgCl, (Fisher Cat. No. M33-500).
Prepare 1 M solution in MilliQ H2O. • 16. HEPES (Fisher Cat. No. BP310-500).
Prepare 1 M solution in MilliQ H2O, adjust pH to 7.5, sterile filter. • 17. TBST Buffer. • 18. Sodium Carbonate Buffer (Fisher Cat. No. S495).
Prepare 0.1 M solution in MilliQ H2O, adjust pH to 9.6 with NaOH, filter. • 19. Dithiothreitol (DTT, Fisher Cat. No. BP172-25).
Prepare 0.5 mM working solution in MilliQ H2O just prior to-use. Store at −20° C. until used, discard any leftover. • 20. MnCl2. • 21. Triton X-100. • 22. Goat α-Rabbit IgG (Cappel). • 23. Affinity purified Rabbit α GST GyrB (Biochemistry Lab. SUGEN, Inc.).
All of the following steps are conducted at room temperature unless otherwise indicated. • 1. Coat Corning 96-well ELISA plates with 2 μg Goat α-Rabbit antibody per well in Carbonate Buffer such that total well volume is 100 μl. Store overnight at 40° C. • 2. Remove unbound Goat a-Rabbit antibody by inverting plate to remove liquid. Pat plate on a paper towel to remove excess liquid and bubbles • 3.. Add 150 μl Blocking Buffer (5% Low Fat Milk in PBS) to each well. Incubate while shaking on a micro-titer plate shaker for 30 min. • 4. Wash 4× with TBST. Pat plate on a paper towel to remove excess liquid and bubbles. • 5. Add 0.5 μg Rabbit α-GyrB antibody per well. Dilute antibody in DPBS to a final volume of 100 μl per well. Incubate with shaking on a micro-titer plate shaker at room temperature for 1 hour. • 6. Wash 4× with TBST as described in step 4. • 7. Add 2 μg COS/FGFR cell lysate (Myc-GyrB-FGFR source) in HNTG to each well to give a final volume of 100 μl per well. Incubate with shaking on a micro-titer plate shaker for 1 hour. • 8. Wash 4× with TBST as described in step 4. • 9. Add 80 μl of 1× kinase buffer per well. • 10. […] Transfer 10 μ l of diluted test compound solution and control wells from polypropylene plate wells to the corresponding ELISA plate wells, incubate with shaking on a micro-titer plate shaker for 20 minutes. • 12. Add 10 μl of 70 μM ATP diluted in kinase buffer to positive control and test wells (Final ATP concentration is 7 EM/well). Add 10 μl 1× kinase buffer to negative control wells. Incubate with shaking on a micro-titer plate shaker for 15 min. • 13. Stop kinase reaction by adding 5 μl 0.5 M EDTA to all wells. • 14. Wash 4× with TBST as described in step 4. • 15. Add 100 μl biotin conjugated α-phosphotyrosine mab (b4G10) diluted in TBST to each well. Incubate with shaking on a micro-titer plate shaker for 30 minutes. • 16. Prepare Vectastain ABC reagent. […] Mix by inverting tube several times. Add 1 drop reagent B and mix again. • 17. Wash 4× with TBST as described in step 4. • 18. Add 100 μl ABC HRP reagent to each well. Incubate with shaking on a micro-titer plate shaker for 30 minutes. • 19. Wash 4× with TBST as described in step 4. • 20. Add 100 μl of ABTS/H2O2 solution to each well. • 22. Incubate 5 to 15 minutes with shaking. Remove any bubbles. • 23. If necessary stop reaction by adding 1 00 μl of 0.2M HCl/well. • 24.
A further assay deals with T1, PDGFR-β (Homo sapiens, UniProt P09619).
T1 construct: host or cells: NIH 3T3
Description: Biochemical PDGFR assay (ELISA, PDGFR-β expressing NIH 3T3 cell lysate). The note with it: read-out: bio PDGF IC50. Summed up:
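PDGFR-β from NIH 3T3 cell lysate captured on anti-PDGFR (28D4C10)-coated plates; compound preincubated 30 min, then 20 μM ATP kinase reaction 30 min at room temperature, stopped with EDTA. Phosphotyrosine detected by anti-phosphotyrosine antibody, peroxidase conjugate and ABTS/H2O2, read at 410 nm.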

Another assay deals with T2, flkGST (Homo sapiens, UniProt P35968).
T2 construct: GST
T2 sequence (P35968 786-1356 limits assumed): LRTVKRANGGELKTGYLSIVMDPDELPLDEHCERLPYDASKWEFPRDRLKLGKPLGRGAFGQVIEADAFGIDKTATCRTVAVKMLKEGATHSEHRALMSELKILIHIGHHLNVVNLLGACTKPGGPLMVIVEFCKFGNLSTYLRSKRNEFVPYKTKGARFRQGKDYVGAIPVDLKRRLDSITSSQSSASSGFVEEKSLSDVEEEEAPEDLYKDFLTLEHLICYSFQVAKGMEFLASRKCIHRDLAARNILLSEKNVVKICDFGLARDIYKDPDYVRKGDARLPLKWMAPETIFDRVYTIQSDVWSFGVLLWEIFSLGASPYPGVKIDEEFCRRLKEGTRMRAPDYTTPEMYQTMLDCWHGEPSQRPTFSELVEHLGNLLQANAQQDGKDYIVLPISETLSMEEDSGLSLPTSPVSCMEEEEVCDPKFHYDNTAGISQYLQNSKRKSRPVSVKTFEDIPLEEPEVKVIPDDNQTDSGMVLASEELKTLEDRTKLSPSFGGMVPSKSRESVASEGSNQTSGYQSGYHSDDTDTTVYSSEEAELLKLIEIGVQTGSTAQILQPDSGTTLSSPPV
Kind of assay: bio flkGST assay. The class given is biochemical.

The next assay deals with T3, human flk-1 (Homo sapiens, UniProt P35968).
T3 construct: host or cells: Flk-1/NIH cells (NIH fibroblasts)
T3 sequence (P35968 20-1356): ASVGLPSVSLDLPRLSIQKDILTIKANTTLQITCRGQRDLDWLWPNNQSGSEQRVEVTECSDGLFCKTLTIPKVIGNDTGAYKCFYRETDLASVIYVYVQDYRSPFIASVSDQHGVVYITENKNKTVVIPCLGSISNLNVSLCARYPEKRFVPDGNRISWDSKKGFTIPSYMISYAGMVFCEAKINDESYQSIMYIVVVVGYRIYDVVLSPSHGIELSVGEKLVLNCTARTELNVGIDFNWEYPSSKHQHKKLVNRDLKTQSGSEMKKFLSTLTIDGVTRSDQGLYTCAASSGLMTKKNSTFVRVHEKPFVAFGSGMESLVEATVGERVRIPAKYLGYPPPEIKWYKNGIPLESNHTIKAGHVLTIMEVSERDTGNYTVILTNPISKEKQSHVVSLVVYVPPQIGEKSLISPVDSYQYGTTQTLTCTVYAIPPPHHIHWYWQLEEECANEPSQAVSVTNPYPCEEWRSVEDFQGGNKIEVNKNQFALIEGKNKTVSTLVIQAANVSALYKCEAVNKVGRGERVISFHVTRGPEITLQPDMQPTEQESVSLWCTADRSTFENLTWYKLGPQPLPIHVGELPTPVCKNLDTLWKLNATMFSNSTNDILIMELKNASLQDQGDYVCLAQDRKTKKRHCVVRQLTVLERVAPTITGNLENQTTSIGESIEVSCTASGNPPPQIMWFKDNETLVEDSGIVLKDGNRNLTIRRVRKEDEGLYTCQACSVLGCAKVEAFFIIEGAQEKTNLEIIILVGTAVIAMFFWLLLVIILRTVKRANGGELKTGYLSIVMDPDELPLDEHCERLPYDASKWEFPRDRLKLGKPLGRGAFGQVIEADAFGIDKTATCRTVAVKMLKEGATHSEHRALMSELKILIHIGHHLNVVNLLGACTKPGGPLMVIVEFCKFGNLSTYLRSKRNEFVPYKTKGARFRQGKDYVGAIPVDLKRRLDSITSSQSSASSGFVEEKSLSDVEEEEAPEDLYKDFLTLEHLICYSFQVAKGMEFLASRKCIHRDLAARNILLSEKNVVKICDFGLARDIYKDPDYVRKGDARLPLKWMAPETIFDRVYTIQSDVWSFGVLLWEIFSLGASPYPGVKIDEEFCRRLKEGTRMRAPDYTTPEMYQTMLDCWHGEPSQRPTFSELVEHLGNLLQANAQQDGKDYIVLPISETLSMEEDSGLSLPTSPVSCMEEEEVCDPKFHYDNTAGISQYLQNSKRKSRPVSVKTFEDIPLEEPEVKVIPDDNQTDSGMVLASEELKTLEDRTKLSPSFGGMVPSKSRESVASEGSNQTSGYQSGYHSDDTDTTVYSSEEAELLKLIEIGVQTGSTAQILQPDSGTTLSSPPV
Kind of assay: Biochemical FLK-1 assay (flk-1 autophosphorylation ELISA). The settings on record: read-out: bio FLK1 IC50 (μM) % if inhibition at 100. On the procedure:
This assay evaluates flk-1 autophosphorylation activity in vitro using ELISA.
Materials And Reagents • 1. 15 cm tissue culture dishes • 2. Flk-1/NIH cells: NIH fibroblast line over-expressing human flk-1clone 3 (SUGEN, Inc., obtained from MPI, Martinsried, Germany). • 3. Growth medium: DMEM plus heat inactivated 10% FBS and 2 mM Glutamine (Gibco-BRL). • 4. Starvation medium: DMEM plus 0.5% heat-inactivated FBS, 2 mM Glutamine (Gibco-BRL). • 5. […] L4 or E38 monoclonal antibody specific for flk-1, Purified by Protein-A agarose affinity chromatography (SUGEN, Inc.). • 7. PBS (Dulbecco's Phosphate-Buffered Saline) Gibco Cat. No. 450-1300EB). • 8. HNTG (see BIOCHEMICAL FGFR for preparation). • 9. Pierce BCA protein determination kit. • 10. Blocking buffer • 11. TBST (pH 7.0) • 12. Kinase Buffer • 13. Kinase Stop Solution: 200 mM EDTA. • 14. […] AB kit (Vector Laboratories Cat. No. PK 4000). • 16. DMSO • 17. NUNC 96-well V bottom polypropylene plates (Applied Scientific Cat. No. AS-72092). • 18. Turbo-TMB (Pierce). • 19. Turbo-TMB stop solution: 1 M H2SO4. • 20. ATP (Sigma Cat. No. A-7699). • 21. 20% DMSO in TBS (pH 7.0). Procedure
Cell Growth and Lysate Preparation. • 1. Seed cell into growth medium and grow for 2-3 days to 90-100% confluency at 37° C. and 5% CO2.
2. Remove the medium and wash the cells twice with PBS. Lyse with HNTG lysis buffer. Collect all lysates and vortex mix them for 20-30 seconds. • 3. Remove insoluble material by centrifugation (5-10 min at about 10,000 ×g). • 4. Determine the protein concentration using BCA kit. • 5. Partition lysate into 1 mg aliquots, store at −80° C.
Assay Procedure • 1. Coat Corning 96-well ELISA plates with 2 μg/well purified L4 (or E 38) in 100 μl of PBS. Store overnight at […] • 2. Remove unbound proteins from wells by inverting the plate to remove the liquid. Wash one time with dH2O, pat plate on paper towel to remove excess liquid. • 3. Block plates with 150 μl blocking buffer per well. Incubate for 45-60 minutes with shaking at 4° C. • 4. Remove the blocking buffer and wash the ELISA plate three times with dH2O and one time with TBST. Pat plate on paper towel to remove excess liquid. • 5. Dilute lysate in PBS to give final concentration of 50 μg/100 μl. Add 100 μl of diluted lysate to each well. Incubate with shaking at 4° C. overnight. • 6. Remove unbound proteins from wells by inverting the plate. Wash as in step 4. • 7. Add 80 μl of kinase buffer to wells (90 μl to negative control wells). • 8. Dilute test compounds (normally 10-fold) into wells of a polypropylene plate containing 20% DMSO in TBS. • 9. Add 10 μl of the diluted compounds to the ELISA wells containing immobilized flk-1 and shake. Control wells receive no compounds. • 10. From stock 1 mM ATP, prepare 0.3 mM ATP solution in dH2O (alternatively, kinase buffer may be used). • 11. Add 10 μl of 0.3 mM ATP to all wells except the negative controls. Incubate for 60 min. at room temperature with shaking. • 12. After 1 hr stop the kinase reaction by adding 11 μl 200 mM EDTA. Shake for 1-2 min. • 13. Wash the ELISA plate 4 times with dH2O and twice with TBST. • 14. Add 100 μl of 1:5000 biotinylated 4G10:TBST to all wells. Incubate 45 min with shaking at room temperature. • 15. While the above is incubating, add 50 μl of solutions A & B from the ABC kit to 10 ml of TBST. These solutions must be combined approximately 30 min prior to use. • 16. Wash plates as in step 4. • 17. Add 100 μl of the preformed A & B complex to all wells. Incubate 30 min with shaking at room temperature. • 18. Wash plates as in step 4. • 19. Add 100 μl turbo-TMB. Shake at room temperature for 10-15 min. • 20. When the color in the positive control wells reaches an absorbance of about 0.35-0.4, stop the reaction with 100 μl of turbo-TMB stop solution. • 21. Read plates on Dynatech MR7000 ELISA reader, test filter: 450 nM, reference filter: 410 nM.

Another assay has as its target pyk2 (Homo sapiens, UniProt Q14289). Kind of assay: bio pyk2 assay. The assay is classed as biochemical.

T1 sequence (P09619 33-1106): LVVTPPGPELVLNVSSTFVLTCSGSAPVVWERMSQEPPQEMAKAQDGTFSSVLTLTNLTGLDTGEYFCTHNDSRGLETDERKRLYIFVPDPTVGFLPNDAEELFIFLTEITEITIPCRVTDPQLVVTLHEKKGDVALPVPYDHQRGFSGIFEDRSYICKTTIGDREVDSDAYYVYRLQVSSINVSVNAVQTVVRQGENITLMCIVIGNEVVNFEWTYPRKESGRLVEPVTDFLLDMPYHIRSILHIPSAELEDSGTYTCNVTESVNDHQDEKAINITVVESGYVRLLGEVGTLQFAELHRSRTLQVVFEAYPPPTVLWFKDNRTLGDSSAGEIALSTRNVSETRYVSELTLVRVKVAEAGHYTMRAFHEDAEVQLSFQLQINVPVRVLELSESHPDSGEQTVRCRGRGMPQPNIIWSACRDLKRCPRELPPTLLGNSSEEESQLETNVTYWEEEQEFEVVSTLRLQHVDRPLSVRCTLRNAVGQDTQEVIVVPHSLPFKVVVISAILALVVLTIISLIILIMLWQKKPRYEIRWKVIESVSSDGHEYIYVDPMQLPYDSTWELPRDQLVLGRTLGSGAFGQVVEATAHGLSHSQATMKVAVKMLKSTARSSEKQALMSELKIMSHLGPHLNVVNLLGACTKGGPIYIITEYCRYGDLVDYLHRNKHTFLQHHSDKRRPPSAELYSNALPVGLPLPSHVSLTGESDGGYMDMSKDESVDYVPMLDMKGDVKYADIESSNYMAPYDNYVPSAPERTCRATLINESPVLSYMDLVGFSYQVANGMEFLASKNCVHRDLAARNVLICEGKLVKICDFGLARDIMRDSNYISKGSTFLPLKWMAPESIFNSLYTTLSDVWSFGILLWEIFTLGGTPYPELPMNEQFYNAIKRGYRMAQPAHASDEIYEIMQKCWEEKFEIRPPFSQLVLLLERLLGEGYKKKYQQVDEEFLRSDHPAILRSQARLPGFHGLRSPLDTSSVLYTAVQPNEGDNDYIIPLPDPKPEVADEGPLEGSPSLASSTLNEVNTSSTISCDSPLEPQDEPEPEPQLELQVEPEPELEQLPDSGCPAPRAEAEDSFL
Chain of Myc-GyrB-FGFR fusion protein (P11362 478-767 limits assumed): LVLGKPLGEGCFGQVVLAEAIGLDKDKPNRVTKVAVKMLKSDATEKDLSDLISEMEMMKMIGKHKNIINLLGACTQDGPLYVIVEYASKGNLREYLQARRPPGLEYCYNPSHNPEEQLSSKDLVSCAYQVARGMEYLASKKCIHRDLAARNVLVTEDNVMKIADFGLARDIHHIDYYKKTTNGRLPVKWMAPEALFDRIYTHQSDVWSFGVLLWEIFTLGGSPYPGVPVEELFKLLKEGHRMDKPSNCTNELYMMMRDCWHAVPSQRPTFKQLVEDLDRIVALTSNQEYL
Chain of pyk2 (Q14289 whole entry, species assumed): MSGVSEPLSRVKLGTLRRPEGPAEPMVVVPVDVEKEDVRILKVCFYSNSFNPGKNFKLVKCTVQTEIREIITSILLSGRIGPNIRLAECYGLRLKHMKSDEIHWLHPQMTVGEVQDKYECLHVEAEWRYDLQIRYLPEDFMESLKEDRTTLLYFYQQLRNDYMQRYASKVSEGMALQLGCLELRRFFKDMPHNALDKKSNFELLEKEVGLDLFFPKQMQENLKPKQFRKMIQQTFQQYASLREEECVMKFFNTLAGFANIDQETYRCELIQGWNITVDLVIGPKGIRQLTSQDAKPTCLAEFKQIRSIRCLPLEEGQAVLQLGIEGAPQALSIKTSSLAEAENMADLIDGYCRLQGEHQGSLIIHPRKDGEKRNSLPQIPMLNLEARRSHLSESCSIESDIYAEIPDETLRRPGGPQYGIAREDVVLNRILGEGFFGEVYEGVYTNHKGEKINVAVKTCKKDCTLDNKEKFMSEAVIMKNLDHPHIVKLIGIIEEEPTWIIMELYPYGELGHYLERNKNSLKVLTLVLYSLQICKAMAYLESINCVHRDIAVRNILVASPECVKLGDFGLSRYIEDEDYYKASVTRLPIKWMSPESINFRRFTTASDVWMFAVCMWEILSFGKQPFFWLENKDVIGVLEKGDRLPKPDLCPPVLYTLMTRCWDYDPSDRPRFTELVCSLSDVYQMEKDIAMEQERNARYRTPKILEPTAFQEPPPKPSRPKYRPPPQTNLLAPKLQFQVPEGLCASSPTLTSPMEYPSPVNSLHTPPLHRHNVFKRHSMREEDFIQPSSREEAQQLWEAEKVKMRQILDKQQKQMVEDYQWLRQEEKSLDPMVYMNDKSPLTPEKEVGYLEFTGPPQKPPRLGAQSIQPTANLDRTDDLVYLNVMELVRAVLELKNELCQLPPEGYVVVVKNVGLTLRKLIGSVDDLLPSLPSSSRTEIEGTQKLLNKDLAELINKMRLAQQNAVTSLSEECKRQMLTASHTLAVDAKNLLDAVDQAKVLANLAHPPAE

As usually defined, the IC50 is the concentration that inhibits the measured activity by half. As to `O=C1Nc2ccc(C(=O)O)cc2/C1=C/c1cc2ccccc2[nH]1` [Example 161, 3-(-1H-Indol-2-ylmethylene)-2-oxo-2,3-dihydro-1H-indole-5-carboxylic acid], the IC50 in assay [1] was greater than 20 µM; on PDGFR-β, 25.1 µM; against flkGST, less than 8 nM; on human flk-1, 2.1 µM.
For `COc1ccccc1-c1ccc2c(c1)NC(=O)/C2=C\c1[nH]c2c(c1CCC(=O)O)CCCC2` [Example 207, 3-{2-[6-(2-Methoxyphenyl)-2-oxo-1,2-dihydro-indol-3-ylidenemethyl]-4,5,6,7-tetrahydro-1H-indol-3-yl}-propionic acid] the same measures were 7.7 µM, 0.87 µM, 1500 nM and 2.72 µM.
On to `Cc1c(/C=C2\C(=O)Nc3ccc(Br)cc32)[nH]c2ccccc12` [Example 169, 5-bromo-3-(3-methyl-1H-indol-2-ylmethylene)-1,3-dihydro-indol-2-one], for which the half-inhibitory concentration (IC50) was greater than 20 µM in assay [1], greater than 100 µM at PDGFR-β and 15.8 µM at human flk-1.
In the case of `Nc1ccc2c(c1)/C(=C/c1cc3ccccc3[nH]1)C(=O)N2` [Example 160, 5-Amino-3-(1H-indol-2-ylmethylene)-1,3-dihydro-indol-2-one], the concentration for half-maximal inhibition (IC50) in assay [1] turned out to be 5.27 µM; at PDGFR-β, 2.72 µM; against flkGST it was 120 nM; on human flk-1 it was 1.53 µM.
On to `Cc1cccc2c1/C(=C/c1[nH]c3ccccc3c1C)C(=O)N2` [Example 170, 4-Methyl-3-(3-methyl-1H-indol-2-ylmethylene)-1,3-dihydroindol-2-one], for which the values for the IC50 (in assay [1]; on PDGFR-β; at human flk-1) were greater than 20 µM, greater than 100 µM and 10.7 µM, respectively.
As to `Cc1[nH]c2ccccc2c1/C=C1\C(=O)Nc2ccc(S(N)(=O)=O)cc21` [Example 189, 3-(2-Methyl-1H-indol-3-ylmethylene)-2-oxo-2,3-dihydro-1H-indole-5-sulfonic acid amide], the IC50 was greater than 20 µM in assay [1], greater than 100 µM at PDGFR-β, greater than 20000 nM at flkGST and greater than 100 µM at pyk2.
